Data: patent US20170233491A1 (Merrimack Pharmaceuticals, Inc., priority 2016, published 2017)
Counter-ions that a name gives are not always drawn.

Experiments:
[1] = system: HRG mRNA expression in CFPAC-1 cells; assay: HRG mRNA expression in CFPAC-1 cells after chemotherapy treatment; type: cell-based; details: FIG. 3
Procedure: HRG mRNA expression was quantified after 24 h treatment with 1 mM of gemcitabine or 0.1 mM of paclitaxel, and normalized to housekeeping gene expression. “Vehicle”=drug-free vehicle control; “Gem”=gemcitabine treated; “Pac”=paclitaxel treated.

[2] = system: preclinical models of pancreatic cancer; assay: preclinical models of pancreatic cancer, combination with nab-paclitaxel and gemcitabine; type: in vivo; details: KRAS mutant pancreatic cancer models
[3] = system: IGF-1R and ErbB3 signaling; assay: growth factor-induced (IGF-1, heregulin) signaling in pancreatic cancer models; type: cell-based; details: preclinical research
pancreatic cancer models = assay: IGF-1- and HRG-mediated insensitivity to gemcitabine or paclitaxel; type: cell-based; details: preclinical research
[4] = system: preclinical models of pancreatic cancer; details: combined with nab-paclitaxel and gemcitabine; cited from earlier work
[5] = Phase 1 study; cited from earlier work
[6] = system: IGF-1R and ErbB3 signaling; details: background description; cited from earlier work
[7] = target: receptor complexes containing IGF-1R and ErbB3 (Homo sapiens, UniProt P08069+P21860); details: including heterodimers with insulin receptor and with ErbB2; cited from earlier work
Sequence of receptor complexes containing IGF-1R and ErbB3 (P08069 31-736 limits assumed): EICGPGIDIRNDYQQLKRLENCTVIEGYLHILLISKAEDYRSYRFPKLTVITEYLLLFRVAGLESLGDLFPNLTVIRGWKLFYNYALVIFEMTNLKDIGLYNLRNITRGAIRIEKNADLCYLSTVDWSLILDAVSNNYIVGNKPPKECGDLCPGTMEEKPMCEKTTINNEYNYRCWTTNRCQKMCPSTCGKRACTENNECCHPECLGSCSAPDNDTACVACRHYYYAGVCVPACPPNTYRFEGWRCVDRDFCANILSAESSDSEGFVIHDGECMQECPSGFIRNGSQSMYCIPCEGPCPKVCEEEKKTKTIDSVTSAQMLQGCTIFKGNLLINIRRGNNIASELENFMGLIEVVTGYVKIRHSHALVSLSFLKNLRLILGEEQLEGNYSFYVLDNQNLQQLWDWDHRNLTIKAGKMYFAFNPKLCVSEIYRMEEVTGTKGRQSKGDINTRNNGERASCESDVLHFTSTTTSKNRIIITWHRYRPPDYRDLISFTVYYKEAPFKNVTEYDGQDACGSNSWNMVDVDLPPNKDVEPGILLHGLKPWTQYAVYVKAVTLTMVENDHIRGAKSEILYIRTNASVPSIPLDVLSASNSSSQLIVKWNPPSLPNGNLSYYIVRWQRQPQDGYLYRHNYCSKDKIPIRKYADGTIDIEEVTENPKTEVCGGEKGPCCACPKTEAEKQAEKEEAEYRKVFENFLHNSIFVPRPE
Sequence of receptor complexes containing IGF-1R and ErbB3 (P08069 741-1367 limits assumed): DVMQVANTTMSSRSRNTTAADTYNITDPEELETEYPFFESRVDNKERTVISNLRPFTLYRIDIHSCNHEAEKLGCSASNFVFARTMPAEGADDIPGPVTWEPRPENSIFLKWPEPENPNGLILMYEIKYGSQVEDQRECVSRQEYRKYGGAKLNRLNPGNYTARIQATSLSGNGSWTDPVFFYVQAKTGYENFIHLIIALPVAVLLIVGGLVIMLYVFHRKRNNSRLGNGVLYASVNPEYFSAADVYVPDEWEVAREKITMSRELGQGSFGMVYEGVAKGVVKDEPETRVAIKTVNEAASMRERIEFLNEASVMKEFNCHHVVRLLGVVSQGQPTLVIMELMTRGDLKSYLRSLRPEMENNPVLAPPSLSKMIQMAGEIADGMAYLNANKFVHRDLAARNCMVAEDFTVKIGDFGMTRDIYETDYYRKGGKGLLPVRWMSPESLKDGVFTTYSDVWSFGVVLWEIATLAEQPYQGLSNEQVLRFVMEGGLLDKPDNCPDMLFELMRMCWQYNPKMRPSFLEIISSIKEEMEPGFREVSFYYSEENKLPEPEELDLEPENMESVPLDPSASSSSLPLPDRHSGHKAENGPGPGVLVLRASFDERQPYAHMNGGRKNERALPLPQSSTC
Sequence of receptor complexes containing IGF-1R and ErbB3 (P21860 20-1342): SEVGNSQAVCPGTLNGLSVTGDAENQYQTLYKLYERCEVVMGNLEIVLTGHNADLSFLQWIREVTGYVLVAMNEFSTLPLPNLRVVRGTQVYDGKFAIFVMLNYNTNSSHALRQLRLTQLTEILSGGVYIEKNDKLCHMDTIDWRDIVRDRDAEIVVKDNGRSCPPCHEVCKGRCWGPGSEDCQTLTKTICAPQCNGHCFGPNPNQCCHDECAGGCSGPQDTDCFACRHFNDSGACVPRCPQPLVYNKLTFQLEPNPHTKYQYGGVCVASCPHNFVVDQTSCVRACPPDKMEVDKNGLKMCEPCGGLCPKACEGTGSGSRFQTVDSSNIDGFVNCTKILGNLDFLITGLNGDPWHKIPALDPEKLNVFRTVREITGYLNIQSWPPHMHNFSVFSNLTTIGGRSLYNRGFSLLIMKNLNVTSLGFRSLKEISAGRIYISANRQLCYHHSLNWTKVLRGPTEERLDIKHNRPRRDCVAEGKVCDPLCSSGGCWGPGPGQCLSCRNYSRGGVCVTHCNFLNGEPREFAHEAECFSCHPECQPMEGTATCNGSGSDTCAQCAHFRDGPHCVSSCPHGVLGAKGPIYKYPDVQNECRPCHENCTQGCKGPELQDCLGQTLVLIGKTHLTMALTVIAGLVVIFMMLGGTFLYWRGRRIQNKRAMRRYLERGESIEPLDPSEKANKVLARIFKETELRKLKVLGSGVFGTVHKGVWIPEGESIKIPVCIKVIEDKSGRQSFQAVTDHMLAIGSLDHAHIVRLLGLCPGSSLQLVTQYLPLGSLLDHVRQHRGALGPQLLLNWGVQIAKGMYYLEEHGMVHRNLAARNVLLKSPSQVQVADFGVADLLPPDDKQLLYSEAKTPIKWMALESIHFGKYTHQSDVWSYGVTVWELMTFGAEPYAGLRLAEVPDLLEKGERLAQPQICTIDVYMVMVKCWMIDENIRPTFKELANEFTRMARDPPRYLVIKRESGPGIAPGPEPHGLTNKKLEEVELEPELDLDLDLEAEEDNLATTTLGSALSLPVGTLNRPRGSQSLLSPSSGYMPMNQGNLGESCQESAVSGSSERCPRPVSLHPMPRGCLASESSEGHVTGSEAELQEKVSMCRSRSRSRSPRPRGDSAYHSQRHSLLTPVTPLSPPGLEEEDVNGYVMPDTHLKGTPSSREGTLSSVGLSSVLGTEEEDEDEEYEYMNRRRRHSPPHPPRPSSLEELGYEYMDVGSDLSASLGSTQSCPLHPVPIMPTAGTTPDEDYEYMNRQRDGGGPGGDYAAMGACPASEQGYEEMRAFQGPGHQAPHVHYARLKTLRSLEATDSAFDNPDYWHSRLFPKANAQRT

Nc1ccn([C@@H]2O[C@H](CO)[C@@H](O)C2(F)F)c(=O)n1 [gemcitabine, 2′-deoxy-2′,2′-difluorocytidine monohydrochloride (-isomer)]
HRG mRNA expression, normalized to housekeeping gene expression ([1]; 24 h treatment with 1 mM of gemcitabine): increases HRG mRNA expression

CC(=O)O[C@H]1C(=O)[C@@]2(C)[C@H]([C@H](OC(=O)c3ccccc3)[C@]3(O)C[C@H](OC(=O)[C@H](O)[C@@H](NC(=O)c4ccccc4)c4ccccc4)C(C)=C1C3(C)C)[C@]1(OC(C)=O)CO[C@@H]1C[C@@H]2O [paclitaxel]
HRG mRNA expression, normalized to housekeeping gene expression ([1]; 24 h treatment with 0.1 mM of paclitaxel): increases HRG mRNA expression

Istiratumab: recombinant fully human bispecific tetravalent antibody directed at IGF-1R and ErbB3; light chain SEQ ID NO: 1, heavy chain SEQ ID NO: 2
potentiation of anti-tumor activity of nab-paclitaxel/gemcitabine [2]: potentiates the anti-tumor activity of nab-paclitaxel/gemcitabine
growth factor-induced survival signaling [3]: inhibits growth factor-induced survival signaling
reversal of IGF-1- and HRG-mediated insensitivity to gemcitabine or paclitaxel (pancreatic cancer models): reverses IGF-1- and HRG-mediated insensitivity to gemcitabine or paclitaxel
tumor regression [4]: significant tumor regression, including durable complete responses
safety and tolerability [5]: safe and tolerable
IGF-1 and heregulin-induced signaling [6]: co-blocks IGF-1 and heregulin-induced signaling
degradation of receptor complexes containing IGF-1R and ErbB3 [7]: induces degradation of receptor complexes containing IGF-1R and ErbB3
